In patent publication US9186321B2 (SUDA LIMITED, priority 2011, dated 2015):
Where a name gives a salt, the structure may show the parent alone.

Test: Overall tolerability in the relative bioavailability study
Type: in vivo, human
Details: doses of 10 mg, 20 mg, 30 mg and single oral dose of 25 mg (1×25 mg tablet); healthy adult subjects under fed conditions
Description: Assessments include evaluation of changes in orthostatic hypotension, oral irritation, vital sign assessments, 12-lead electrocardiogram (ECG), and clinical assessments.
After dosing, the following activities were completed: • Both objective and subjective oral irritation assessments were performed immediately after dosing and at one hour after dose administration. • A fast was maintained until at least four hours after dosing. During the study confinement period, fluid consumption resumed no sooner than one hour after dose administration. […] Day 2 • Blood sample collections were obtained as per the profile. • Supine and standing blood pressure and heart rate was measured at approximately 24 hours after each dose. • All subjects were evaluated for the presence of any adverse events prior to release from the study site. • Prior to release, subjects were evaluated to ensure it was safe for them to be released from the study site. • Subjects were released from the study site at approximately 24 hours after dose administration. […]

In the case of `CCCc1nn(C)c2c(=O)[nH]c(-c3cc(S(=O)(=O)N4CCN(C)CC4)ccc3OCC)nc12` [sildenafil citrate], the tolerability is reported as “well tolerated”.
